Experimental data reported in patent US8404866B2, “Substituted heterocyclic mercaptosulfonamide metalloprotease inhibitors” (Florida State University Research Foundation, priority 2008, dated 2013).
Structures can show the parent of a compound that is named as a salt.

Experiments:
[1] = target: T1, MMP-2 (HFG; human fibroblast gelatinase) (Homo sapiens, UniProt P08253); assay: Enzyme kinetic assay, inhibition of MMP-2; type: biochemical; details: read-out: Ki (value in parentheses), HFG MMP-2
T1 sequence (P08253 110-660): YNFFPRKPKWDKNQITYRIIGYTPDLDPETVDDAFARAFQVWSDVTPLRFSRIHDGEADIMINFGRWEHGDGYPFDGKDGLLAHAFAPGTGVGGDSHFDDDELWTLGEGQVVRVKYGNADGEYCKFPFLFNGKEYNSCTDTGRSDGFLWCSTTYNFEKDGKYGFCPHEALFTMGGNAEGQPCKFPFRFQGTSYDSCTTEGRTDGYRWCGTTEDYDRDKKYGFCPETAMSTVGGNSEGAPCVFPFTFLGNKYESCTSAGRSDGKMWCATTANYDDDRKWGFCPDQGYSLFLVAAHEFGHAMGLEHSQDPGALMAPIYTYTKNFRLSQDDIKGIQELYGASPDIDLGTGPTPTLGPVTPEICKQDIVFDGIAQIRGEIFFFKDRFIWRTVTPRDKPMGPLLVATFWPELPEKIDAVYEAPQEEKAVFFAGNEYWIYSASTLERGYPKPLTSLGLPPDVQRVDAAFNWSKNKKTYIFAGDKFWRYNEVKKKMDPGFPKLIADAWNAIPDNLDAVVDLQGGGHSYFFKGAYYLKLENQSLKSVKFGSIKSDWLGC
Source text: (§1) The following protocol was used to obtain the data found in the following table. Materials: The fluorescent peptide substrates for matrix metalloproteinases (MMPs) used were purchased from Bachem Chem. Co. The metal salts and Brij-35 were purchased from Fisher Scientific Inc. All other chemicals were purchased from Sigma-Aldrich Chem. Co. The sources and biochemical characterizations of multiple MMPs, including MMP-1/human fibroblast collagenase (HFC), MMP-2/human fibroblast gelatinase (HFG), MMP-8/human neutrophil collagenase (HNC), and MMP-9/human neutrophil gelatinase (HNG), MMP-7/human matrilysin (MLN), MMP-3/human fibroblast stromelysin-1 (HFS), human recombinant catalytic domain of membrane-type 1 matrix metalloproteinase (cdMT1-MMP), catalytic domain of MMP-12/metalloelastase (cdMET), and MMP-26/human endometase (EDM) were described previously (Sang, Q. X., Birkedal-Hansen, H., and Van Wart, H. E. Proteolytic and non-proteolytic activation of human neutrophil progelatinase B. Biochim. Biophys. Acta. 1995; 1251, 99-108; Sang, Q. A., Bodden, M. K., and Windsor, L. J. Activation of human progelatinase A by collagenase and matrilysin: activation of procollagenase by matrilysin. J. Protein. Chem. 1996; 15, 243-253; Li, H., Bauzon, D. E., Xu, X., Tschesche, H., Cao, J., and Sang, Q.-X. A. Immunological characterization of cell-surface and soluble forms of membrane type 1 matrix metalloproteinase in human breast cancer cells and in fibroblasts. Molec. Carcinog. 1998; 22, 84-94; Park, H. I., Ni, J., Gerkema, F. E., Liu, D., Belozerov, V. E., and Sang, Q.-X. A. Identification and characterization of human endometase (Matrix metalloproteinase-26) from endometrial tumor. J. Biol. Chem., 2000; 275, 20540-20544). The active concentrations of MMPs were determined by titration with GM6001, a tight-binding MMP inhibitor, as described previously (Park, H. I., Turk, B. E., Gerkema, F. E., Cantley, L. C., and Sang, Q.-X. A. Peptide substrate specificities and protein cleavage sites of human endometase/matrilysin-2/matrix metalloproteinase-26. J. Biol. Chem. 2002; 277, 35168-35175).
(§2) The active inhibitor concentrations were estimated by titrating the mercapto group with 5,5′-dithiobis(2-nitrobenzoic acid) (DTNB; Ellman's reagent) as described previously (Ellman, G. L. A colorimetric method for determining low concentrations of mercaptans. Arch. Biochem. Biophys. 1958; 74, 443-450; Ellman, G. L. Tissue sulfhydryl groups. Arch. Biochem. Biophys. 1959; 82, 70-77; Riddles, P. W., Blakeley, R. L., and Zerner, B. Ellman's reagent: 5,5′-dithiobis(2-nitrobenzoic acid)—a reexamination. Anal. Biochem. 1979; 94, 75-81). Briefly, the reaction of DTNB with the mercapto group produces 2-nitro-5-thiobenzoic acid (TNB). The concentration of TNB is then measured by monitoring the absorbance at 412 nm. Cysteine was used to generate the standard curve with a molar extinction coefficient of 14,000±500 M^−1 cm^−1, which is close to the value in the literature (Riddles, P. W., Blakeley, R. L., and Zerner, B. Ellman's reagent: 5,5′-dithiobis(2-nitrobenzoic acid)—a reexamination. Anal. Biochem. 1979; 94, 75-81).
(§3) The substrate Mca-PLGLDpaAR-NH2 was used to measure inhibition constants (Knight, C. G., Willenbrock. F., and Murphy, G. A novel coumarin-labelled peptide for sensitive continuous assays of the matrix metalloproteinases. FEBS Lett. 1992; 296, 263-266). Enzymatic assays were performed at 25° C. in 50 mM HEPES buffer at pH 7.5 in the presence of 10 mM CaCl2, 0.2 M NaCl, and 0.01% or 0.05% Brij-35 with substrate concentrations of 1 μM. The release of product was monitored by measuring fluorescence (excitation and emission wavelengths of 328 nm and 393 nm, respectively) with a Perkin Elmer Luminescence Spectrophotometer LS 50B connected to a temperature controlled water bath. All stock solutions of inhibitors were in dimethyl sulfoxide. […]

[2] = target: T2, MMP-1 (HFC; human fibroblast collagenase) (Homo sapiens, UniProt P03956); assay: Enzyme kinetic assay, inhibition of MMP-1; type: biochemical; details: 25° C., pH 7.5, substrate 1 μM; read-out: IC50 (value without parentheses), HFC MMP-1
T2 sequence (P03956 100-469): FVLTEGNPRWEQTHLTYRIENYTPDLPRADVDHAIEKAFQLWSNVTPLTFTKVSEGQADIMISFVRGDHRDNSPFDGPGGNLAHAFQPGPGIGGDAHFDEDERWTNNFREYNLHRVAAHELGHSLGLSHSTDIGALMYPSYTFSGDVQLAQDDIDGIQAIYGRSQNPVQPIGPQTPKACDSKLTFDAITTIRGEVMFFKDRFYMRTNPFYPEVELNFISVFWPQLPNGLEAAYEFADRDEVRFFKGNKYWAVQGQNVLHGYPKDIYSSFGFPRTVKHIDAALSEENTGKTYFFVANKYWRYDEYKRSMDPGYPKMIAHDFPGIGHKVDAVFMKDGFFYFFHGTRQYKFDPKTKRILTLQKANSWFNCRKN
Source text: as §1, §2, §3

[3] = target: MMP-9 (HNG; human neutrophil gelatinase) (Homo sapiens, UniProt P14780); assay: Enzyme kinetic assay, inhibition of MMP-9; type: biochemical; details: read-out: Ki (value in parentheses), HNG MMP-9
Sequence of MMP-9 (HNG; human neutrophil gelatinase) (P14780 94-707): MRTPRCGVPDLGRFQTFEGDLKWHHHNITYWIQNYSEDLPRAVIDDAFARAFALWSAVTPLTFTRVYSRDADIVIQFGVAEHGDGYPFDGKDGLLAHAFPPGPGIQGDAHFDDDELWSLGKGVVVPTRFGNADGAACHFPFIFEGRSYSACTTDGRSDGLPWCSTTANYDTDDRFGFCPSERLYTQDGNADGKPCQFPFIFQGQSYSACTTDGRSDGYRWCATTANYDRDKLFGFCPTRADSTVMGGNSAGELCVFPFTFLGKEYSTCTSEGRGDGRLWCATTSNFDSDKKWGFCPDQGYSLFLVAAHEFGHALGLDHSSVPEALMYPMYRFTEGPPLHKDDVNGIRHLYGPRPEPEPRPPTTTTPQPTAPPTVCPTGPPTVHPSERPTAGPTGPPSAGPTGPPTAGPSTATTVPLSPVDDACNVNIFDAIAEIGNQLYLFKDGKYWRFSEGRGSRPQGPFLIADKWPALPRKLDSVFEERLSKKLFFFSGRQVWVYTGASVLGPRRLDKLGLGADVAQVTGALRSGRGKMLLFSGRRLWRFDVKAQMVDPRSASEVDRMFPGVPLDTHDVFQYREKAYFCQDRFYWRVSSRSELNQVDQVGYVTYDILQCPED
Source text: as §1, §2, §3

[4] = target: MMP-3 (HFS; human fibroblast stromelysin-1) (Homo sapiens, UniProt P08254); assay: Enzyme kinetic assay, inhibition of MMP-3; type: biochemical; details: read-out: Ki (value in parentheses), HFS MMP-3
Sequence of MMP-3 (HFS; human fibroblast stromelysin-1) (P08254 100-477): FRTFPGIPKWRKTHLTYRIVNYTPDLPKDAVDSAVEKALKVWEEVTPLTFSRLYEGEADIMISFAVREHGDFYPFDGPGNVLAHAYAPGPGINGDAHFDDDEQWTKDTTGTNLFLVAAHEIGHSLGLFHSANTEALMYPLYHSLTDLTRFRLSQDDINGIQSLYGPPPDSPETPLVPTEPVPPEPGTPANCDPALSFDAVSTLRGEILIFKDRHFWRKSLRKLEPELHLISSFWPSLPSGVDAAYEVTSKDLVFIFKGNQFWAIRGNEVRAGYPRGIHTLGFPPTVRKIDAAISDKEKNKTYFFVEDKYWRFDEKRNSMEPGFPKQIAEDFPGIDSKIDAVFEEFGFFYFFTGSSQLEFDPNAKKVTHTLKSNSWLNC
Source text: as §1, §2, §3

lethal acute GVHD = details: mouse model of lethal acute GVHD; cited from earlier work
insulin resistance = details: mouse model of insulin resistance; cited from earlier work
kidneys = details: given prior to disease induction; cited from earlier work
EAN animal model = details: cited from earlier work
brain = details: following hemorrhage; cited from earlier work
blood-brain barrier = details: ischemia reperfusion model in the rat; cited from earlier work
[5] = system: experimental autoimmune uveitis; details: cited from earlier work
stented arteries = details: compared to placebo; cited from earlier work
EAE animal model = details: administered daily from disease induction or from onset of clinical signs; cited from earlier work

SMILES | Ki [1] | IC50 [2] | Ki [3] | Ki [4] | also measured
O=S(=O)(N[C@@H]1CNC[C@H]1S)c1ccc(Oc2ccccc2)cc1 [Example 11, (3R,4R)-3-(4-Phenoxybenzenesulfonamido)-4-mercaptopyrrolidine Hydrochloride] | 49 nM | 6300 nM | 230 nM | 1600 nM | –
CNC(=O)[C@@H](NC(=O)[C@H](CC(C)C)[C@H](C)C(=O)NO)c1ccccc1 [KB-R7785] | – | – | – | – | mortality (lethal acute GVHD): reduced mortality; plasma glucose and insulin levels (insulin resistance): significant decrease
O=C(OCc1ccccc1)N1C[C@@H](S)[C@@H](NS(=O)(=O)c2ccc(Oc3ccccc3)cc2)C1 [Example 14, (3S,4R)—N-Cbz-3-(4-Phenoxybenzenesulfonamido)-4-mercaptopyrrolidine] | 800 nM | > 3000 nM | 2200 nM | 3400 nM | –
C=CC[C@H](C(=O)NO)[C@@H](CC(C)C)C(=O)N[C@@H](Cc1ccccc1)C(=O)NC [BB-1101] | – | – | – | – | inflammatory response and damage (kidneys): significantly reduced; EAN symptoms, inflammation, demyelination, weight loss (EAN animal model; given from the initiation of EAN): prevented the development of symptoms and reduced inflammation, demyelination, and weight loss; EAN disease severity (EAN animal model; given from the onset of symptoms): significantly reduced disease severity; secondary brain edema (brain): reduces; early phases of blood-brain barrier leakage (blood-brain barrier): reduces; retinal damage [5]: shown to reduce retinal damage
CNC(=O)[C@H](Cc1c[nH]c2ccccc12)NC(=O)[C@@H](CC(=O)NO)CC(C)C [GM6001] | – | – | – | – | intimal hyperplasia and collagen content (stented arteries): significantly inhibited; lumen area (stented arteries): increasing the lumen area; rates of proliferation (stented arteries): without affecting the rates of proliferation; clinical signs of EAE (EAE animal model): suppressed the development or reversed clinical signs of EAE in a dose-dependent way
O=C(OCc1ccccc1)N1C[C@H](S)[C@H](NS(=O)(=O)c2ccc(Oc3ccccc3)cc2)C1 [Example 13, (3R,4S)—N-Cbz-3-(4-Phenoxybenzenesulfonamido)-4-mercaptopyrrolidine] | 1800 nM | ~125000 nM | 3100 nM | 5400 nM | –
O=S(=O)(N[C@H]1CNC[C@@H]1S)c1ccc(Oc2ccccc2)cc1 [Example 10, (3S,4S)-3-(4-Phenoxybenzenesulfonamido)-4-mercaptopyrrolidine Hydrochloride] | 38 nM | 50000 nM | 210 nM | 5900 nM | –
NC(=O)N1C[C@H](NS(=O)(=O)c2ccc(Oc3ccccc3)cc2)[C@@H](S)C1 [Example 12, (3S,4S)—N-Carbamoyl-3-(4-phenoxybenzene-sulfonamido)-4-mercaptopyrrolidine] | 10 nM | – | 13 nM | 1700 nM | –
